# From ChEMBL document CHEMBL5584231, “Rational design of a new short anticancer peptide with good potential for cancer treatment” (Eur J Med Chem, 2024)
# Non-standard residues stand in square brackets, D forms with d. Residues, ends and D or L forms follow the SMILES beside them. Dip = N[C@H](C(=O)O)C(c1ccccc1)c1ccccc1; Nle(6-COOH) = N[C@@H](CCCCC(=O)O)C(=O)O; Asu = N[C@@H](CCCCCC(=O)O)C(=O)O
# What was measured:
# [1] = Therapeutic index, ratio of HC10 for mouse RBC to IC50 for cytotoxicity against human A549 cells; type: toxicity, cell-based; details: mouse RBC and A549 cells, read-out: TI
# A549 = test: Cytotoxicity against human A549 cells assessed as inhibition of cell growth incubated for 1 hr by MTT assay; type: functional, cell-based; details: A549, 1 h
# HeLa = test: Cytotoxicity against human HeLa cells assessed as inhibition of cell growth incubated for 1 hr by MTT assay; type: functional, cell-based
# [2] = Therapeutic index, ratio of HC10 for mouse RBC to IC50 for cytotoxicity against human HeLa cells; type: toxicity, cell-based; details: mouse RBC and HeLa cells, read-out: TI
# [3] = Therapeutic index, ratio of HC10 for mouse RBC to IC50 for cytotoxicity against RG cells (unknown origin); type: toxicity, cell-based; details: mouse RBC and RG cells, read-out: TI
# [4] = Therapeutic index, ratio of HC10 for mouse RBC to IC50 for cytotoxicity against human MCF7 cells; type: toxicity, cell-based; details: mouse RBC and MCF7 cells, read-out: TI
# [5] = Cytotoxicity against HK-2 cells assessed as inhibition of cell growth incubated for 1 hr by MTT assay; type: toxicity, cell-based; details: human
# [6] = Cytotoxicity against RG cells (unknown origin) assessed as inhibition of cell growth incubated for 1 hr by MTT assay; type: functional, cell-based
# MCF7 = test: Cytotoxicity against human MCF7 cells assessed as inhibition of cell growth incubated for 1 hr by MTT assay; type: functional, cell-based; details: MCF7, 1 h
SMILES,selectivity ratio [1],IC50 (A549) [µM],IC50 (HeLa) [µM],selectivity ratio [2],selectivity ratio [3],selectivity ratio [4],IC50 at 1 h [5] [µM],IC50 [6] [µM],IC50 (MCF7) [µM]
CC(C)C[C@H](NC(=O)[C@H](CC(C)C)NC(=O)[C@H](CCCCN)NC(=O)[C@H](CCCCN)NC(=O)[C@H](CC(C)C)NC(=O)[C@H](CC(C)C)NC(=O)[C@H](CCCCN)NC(=O)[C@H](CCCCN)NC(=O)[C@H](CC(C)C)NC(=O)[C@H](CC(C)C)NC(=O)[C@H](CCCCN)NC(=O)[C@H](CCCCN)NC(=O)[C@H](CC(C)C)NC(=O)[C@H](CC(C)C)NC(=O)[C@@H](N)CCCCN)C(=O)N[C@@H](CCCCN)C(N)=O (H-KLLKKLLKKLLKKLLK-NH2),2.31,3.93,3.94,2.31,1.34,1.22,7.36,6.79,7.46
CC(C)C[C@H](NC(=O)[C@H](CC(C)C)NC(=O)[C@H](CCCCN)NC(=O)[C@H](CCCCN)NC(=O)[C@H](CC(C)C)NC(=O)[C@H](CC(C)C)NC(=O)[C@H](CCCCN)NC(=O)[C@H](CCCCN)NC(=O)[C@H](CCC(=O)O)NC(=O)[C@H](CC(C)C)NC(=O)[C@H](CCCCN)NC(=O)[C@H](CCCCN)NC(=O)[C@H](CC(C)C)NC(=O)[C@@H](N)CC(C)C)C(N)=O (H-LLKKLEKKLLKKLL-NH2),0.943,530,104,4.8,1.2,2.47,264,418,202
CC(C)C[C@H](NC(=O)[C@H](CC(C)C)NC(=O)[C@H](CCCCN)NC(=O)[C@H](CCCCN)NC(=O)[C@H](CC(C)C)NC(=O)[C@H](CC(C)C)NC(=O)[C@H](CCCCN)NC(=O)[C@H](CCCCN)NC(=O)[C@H](CC(C)C)NC(=O)[C@H](CC(C)C)NC(=O)[C@H](CCCCN)NC(=O)[C@H](CCCCN)NC(=O)[C@H](CC(C)C)NC(=O)[C@@H](N)CCC(=O)O)C(N)=O (H-ELKKLLKKLLKKLL-NH2),1.75,14.7,16.3,1.58,1.15,0.647,50.8,22.5,39.9
CC(C)C[C@H](NC(=O)[C@H](CC(C)C)NC(=O)[C@H](CCCCN)NC(=O)[C@H](CCCCN)NC(=O)[C@H](CC(C)C)NC(=O)[C@H](CC(C)C)NC(=O)[C@H](CCCCN)NC(=O)[C@H](CCCCN)NC(=O)[C@H](CC(C)C)NC(=O)[C@H](CC(C)C)NC(=O)[C@H](CCCCN)NC(=O)[C@H](CCC(=O)O)NC(=O)[C@H](CC(C)C)NC(=O)[C@@H](N)CC(C)C)C(N)=O (H-LLEKLLKKLLKKLL-NH2),0.767,8.11,7.05,0.883,0.563,0.595,11,11.1,10.5
CC(C)C[C@H](NC(=O)[C@H](CCCCN)NC(=O)[C@H](CCCCN)NC(=O)[C@H](CC(C)C)NC(=O)[C@H](CC(C)C)NC(=O)[C@H](CCCCN)NC(=O)[C@H](CCCCN)NC(=O)[C@H](CC(C)C)NC(=O)[C@H](CC(C)C)NC(=O)[C@H](CCCCN)NC(=O)[C@H](CCCCN)NC(=O)[C@H](CC(C)C)NC(=O)[C@@H](N)CC(C)C)C(=O)N[C@@H](CCCCCC(=O)O)C(N)=O (H-LLKKLLKKLLKKL[Asu]-NH2),13.5,5.97,5.23,15.4,6.3,9.43,15.3,12.8,8.55
NCCCC[C@H](NC(=O)[C@@H](NC(=O)[C@H](Cc1c[nH]c2ccccc12)NC(=O)[C@H](CCCCN)NC(=O)[C@H](CCCCN)NC(=O)[C@H](Cc1c[nH]c2ccccc12)NC(=O)[C@H](Cc1c[nH]c2ccccc12)NC(=O)[C@H](CCCCN)NC(=O)[C@@H](N)CCCCN)C(c1ccccc1)c1ccccc1)C(N)=O [RUXOTEMITIDE] (H-KKWWKKW[Dip]K-NH2),2.43,64.1,14.7,10.6,3.6,2.45,78.4,43.2,63.5
CC(C)C[C@H](NC(=O)[C@H](CC(C)C)NC(=O)[C@H](CCCCN)NC(=O)[C@H](CCCCN)NC(=O)[C@H](CC(C)C)NC(=O)[C@H](CC(C)C)NC(=O)[C@H](CCCCN)NC(=O)[C@H](CCCCN)NC(=O)[C@H](CC(C)C)NC(=O)[C@H](CC(C)C)NC(=O)[C@H](CCC(=O)O)NC(=O)[C@H](CCCCN)NC(=O)[C@H](CC(C)C)NC(=O)[C@@H](N)CC(C)C)C(N)=O (H-LLKELLKKLLKKLL-NH2),0.966,23.8,12.9,1.78,1.26,1.24,21.4,18.2,18.5
CC(C)C[C@H](NC(=O)[C@H](CC(C)C)NC(=O)[C@H](CCCCN)NC(=O)[C@H](CCCCN)NC(=O)[C@H](CC(C)C)NC(=O)[C@H](CC(C)C)NC(=O)[C@H](CCCCN)NC(=O)[C@H](CCCCN)NC(=O)[C@H](CC(C)C)NC(=O)[C@H](CC(C)C)NC(=O)[C@H](CCCCN)NC(=O)[C@H](CCCCN)NC(=O)[C@H](CC(C)C)NC(=O)[C@H](CC(C)C)NC(=O)[C@H](CCCCN)NC(=O)[C@@H](N)CCCCN)C(=O)N[C@@H](CCCCN)C(N)=O (H-KKLLKKLLKKLLKKLLK-NH2),1.67,7.23,4.63,2.62,1.11,1.34,8.47,10.9,9.06
CC(C)C[C@H](NC(=O)[C@H](CC(C)C)NC(=O)[C@H](CCCCN)NC(=O)[C@H](CCC(=O)O)NC(=O)[C@H](CC(C)C)NC(=O)[C@H](CC(C)C)NC(=O)[C@H](CCCCN)NC(=O)[C@H](CCCCN)NC(=O)[C@H](CC(C)C)NC(=O)[C@H](CC(C)C)NC(=O)[C@H](CCCCN)NC(=O)[C@H](CCCCN)NC(=O)[C@H](CC(C)C)NC(=O)[C@@H](N)CC(C)C)C(N)=O (H-LLKKLLKKLLEKLL-NH2),3.48,5.01,5.53,3.15,3.04,2.28,4.49,5.73,7.66
CC(C)C[C@H](NC(=O)[C@H](CC(C)C)NC(=O)[C@H](CCCCN)NC(=O)[C@H](CCCCN)NC(=O)[C@H](CC(C)C)NC(=O)[C@H](CC(C)C)NC(=O)[C@H](CCCCN)NC(=O)[C@H](CCCCN)NC(=O)[C@H](CC(C)C)NC(=O)[C@H](CC(C)C)NC(=O)[C@H](CCCCN)NC(=O)[C@@H](N)CCCCN)C(=O)N[C@@H](CCCCN)C(N)=O (H-KKLLKKLLKKLLK-NH2),9.03,55.4,20.8,24.1,5.36,4.61,63.9,93.3,108
CC(C)C[C@H](NC(=O)[C@H](CCCCN)NC(=O)[C@H](CCCCN)NC(=O)[C@H](CC(C)C)NC(=O)[C@H](CC(C)C)NC(=O)[C@H](CCCCN)NC(=O)[C@H](CCCCN)NC(=O)[C@H](CC(C)C)NC(=O)[C@H](CC(C)C)NC(=O)[C@H](CCCCN)NC(=O)[C@H](CCCCN)NC(=O)[C@H](CC(C)C)NC(=O)[C@@H](N)CC(C)C)C(=O)N[C@@H](CCCCC(=O)O)C(N)=O (H-LLKKLLKKLLKKL[Nle(6-COOH)]-NH2),17.1,11.2,7.59,25.4,9.42,13.8,26.4,20.4,14
CC(C)C[C@H](NC(=O)[C@H](CC(C)C)NC(=O)[C@H](CCCCN)NC(=O)[C@H](CCCCN)NC(=O)[C@H](CC(C)C)NC(=O)[C@H](CC(C)C)NC(=O)[C@H](CCCCN)NC(=O)[C@H](CCCCN)NC(=O)[C@H](CC(C)C)NC(=O)[C@H](CC(C)C)NC(=O)[C@@H](N)CCCCN)C(=O)N[C@@H](CCCCN)C(N)=O (H-KLLKKLLKKLLK-NH2),3.19,131,22.2,18.9,8.86,4.66,82.6,47.2,89.7
CC(C)C[C@H](NC(=O)[C@H](CC(C)C)NC(=O)[C@H](CCCCN)NC(=O)[C@H](CCCCN)NC(=O)[C@H](CC(C)C)NC(=O)[C@H](CCC(=O)O)NC(=O)[C@H](CCCCN)NC(=O)[C@H](CCCCN)NC(=O)[C@H](CC(C)C)NC(=O)[C@H](CC(C)C)NC(=O)[C@H](CCCCN)NC(=O)[C@H](CCCCN)NC(=O)[C@H](CC(C)C)NC(=O)[C@@H](N)CC(C)C)C(N)=O (H-LLKKLLKKELKKLL-NH2),1.04,482,120,4.18,2.3,2.76,146,217,181
